The text below walks through data of US4945055A, “Human chorionic gonadotropin releasing factor” (Board of Regents, University of Texas System, priority 1986, dated 1990).

Assay [1] concerns human chorionic gonadotropin releasing factor (hCG-RF), glycoprotein purified from human term placenta, peptidase activity degrading GnRH. Kind of assay: Loss of GnRH immunoreactivity on incubation with hCG-RF (GnRH-RIA after Sephadex G-150). Type of assay: biochemical. Particulars: hCG-RF 41 ug, GnRH 40 ng, 24 h at 4° C. Here is the method: The effect of purified hCG-RF on GnRH immunoreactivity was studied. […] Chromatography of 0.1 ml of the incubate on Sephadex G-150 (1×20 cm in 0.01M TRIS, 0.001M DTT) followed, collecting 1 ml fraction. Immunoreactive GnRH was determined by GnRH-RIA.

Assay [2] deals with placental receptor recognizing synthetic GnRH. Particulars: read-out: dissociation constant of the placental receptor for synthetic GnRH; cited from earlier work.

As for `N=C(N)c1ccc(N)cc1` [para-amino-benzamidine], the “reversal of the loss of GnRH immunoreactivity effected by incubation with hCG-RF” value in assay [1] (175 mM para-amino-benzamidine added with the buffer) is “totally reversed”.
`CC(C)C[C@H](NC(=O)CNC(=O)[C@H](Cc1ccc(O)cc1)NC(=O)[C@H](CO)NC(=O)[C@H](Cc1c[nH]c2ccccc12)NC(=O)[C@H](Cc1c[nH]cn1)NC(=O)[C@@H]1CCC(=O)N1)C(=O)N[C@@H](CCCNC(=N)N)C(=O)N1CCC[C@H]1C(=O)NCC(N)=O` [synthetic GnRH, pyro-glu-his-trp-ser-tyr-gly-leu-arg-pro-gly-NH2]: the Kd in assay [2] was 100 nM.
Regarding bacitracin, the “reversal of the loss of GnRH immunoreactivity effected by incubation with hCG-RF” value in assay [1] (5000 unit bacitracin added with the buffer) is listed as “totally reversed”.
